In patent US9637453B2, “3-spirocyclic-6-hydroxamic acid tetralins as HDAC inhibitors” (Forma Therapeutics, Inc., priority 2015, dated 2017):

Assays:
[1] = molecular target: T1, Full length human recombinant HDAC11 (Homo sapiens, UniProt Q96DB2); test: In vitro histone deacetylase assay, enzymatic HDAC11 (electrophoretic mobility shift assay); format: biochemical; conditions: 10 nM HDAC11; 2 μM peptide substrate FAM-RHKK(tri-fluor-Ac)—NH2; 25° C.; 12 concentrations; read-out: HDAC11 Activity Range (IC50)
T1 construct: Full length human recombinant HDAC6 and HDAC11 proteins were expressed in baculoviral system
T1 sequence (Q96DB2 1-347): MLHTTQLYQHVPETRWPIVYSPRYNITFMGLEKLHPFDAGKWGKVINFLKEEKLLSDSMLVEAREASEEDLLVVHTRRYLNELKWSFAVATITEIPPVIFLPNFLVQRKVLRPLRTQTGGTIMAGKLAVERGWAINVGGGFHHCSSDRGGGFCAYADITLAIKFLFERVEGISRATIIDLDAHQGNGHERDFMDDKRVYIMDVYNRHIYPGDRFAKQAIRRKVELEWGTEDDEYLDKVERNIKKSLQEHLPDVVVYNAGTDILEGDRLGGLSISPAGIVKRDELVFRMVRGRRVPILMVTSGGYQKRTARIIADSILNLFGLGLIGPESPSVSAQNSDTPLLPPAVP
Method in brief: (§1)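 Baculovirus-expressed full-length enzymes (HDAC6 1 nM, FAM-RHKK(Ac)-NH2; HDAC11 10 nM, FAM-RHKK(tri-fluor-Ac)-NH2), 2 μM substrate, HEPES pH 7.5, 25°C, 12-point 3× dilutions. Product/substrate separated by microfluidic mobility shift after SDS quench; IC50 from 4-parameter fit, reported as +/++/+++ bins.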

[2] = molecular target: T2, Full length human recombinant HDAC6 (Homo sapiens, UniProt Q9UBN7); test: In vitro histone deacetylase assay, enzymatic HDAC6 (electrophoretic mobility shift assay); format: biochemical; conditions: 1 nM HDAC6; 2 μM peptide substrate FAM-RHKK(Ac)—NH2; 25° C.; 12 concentrations; read-out: HDAC6 Activity Range (IC50)
T2 construct: Full length human recombinant HDAC6 and HDAC11 proteins were expressed in baculoviral system
T2 sequence (Q9UBN7 1-1215): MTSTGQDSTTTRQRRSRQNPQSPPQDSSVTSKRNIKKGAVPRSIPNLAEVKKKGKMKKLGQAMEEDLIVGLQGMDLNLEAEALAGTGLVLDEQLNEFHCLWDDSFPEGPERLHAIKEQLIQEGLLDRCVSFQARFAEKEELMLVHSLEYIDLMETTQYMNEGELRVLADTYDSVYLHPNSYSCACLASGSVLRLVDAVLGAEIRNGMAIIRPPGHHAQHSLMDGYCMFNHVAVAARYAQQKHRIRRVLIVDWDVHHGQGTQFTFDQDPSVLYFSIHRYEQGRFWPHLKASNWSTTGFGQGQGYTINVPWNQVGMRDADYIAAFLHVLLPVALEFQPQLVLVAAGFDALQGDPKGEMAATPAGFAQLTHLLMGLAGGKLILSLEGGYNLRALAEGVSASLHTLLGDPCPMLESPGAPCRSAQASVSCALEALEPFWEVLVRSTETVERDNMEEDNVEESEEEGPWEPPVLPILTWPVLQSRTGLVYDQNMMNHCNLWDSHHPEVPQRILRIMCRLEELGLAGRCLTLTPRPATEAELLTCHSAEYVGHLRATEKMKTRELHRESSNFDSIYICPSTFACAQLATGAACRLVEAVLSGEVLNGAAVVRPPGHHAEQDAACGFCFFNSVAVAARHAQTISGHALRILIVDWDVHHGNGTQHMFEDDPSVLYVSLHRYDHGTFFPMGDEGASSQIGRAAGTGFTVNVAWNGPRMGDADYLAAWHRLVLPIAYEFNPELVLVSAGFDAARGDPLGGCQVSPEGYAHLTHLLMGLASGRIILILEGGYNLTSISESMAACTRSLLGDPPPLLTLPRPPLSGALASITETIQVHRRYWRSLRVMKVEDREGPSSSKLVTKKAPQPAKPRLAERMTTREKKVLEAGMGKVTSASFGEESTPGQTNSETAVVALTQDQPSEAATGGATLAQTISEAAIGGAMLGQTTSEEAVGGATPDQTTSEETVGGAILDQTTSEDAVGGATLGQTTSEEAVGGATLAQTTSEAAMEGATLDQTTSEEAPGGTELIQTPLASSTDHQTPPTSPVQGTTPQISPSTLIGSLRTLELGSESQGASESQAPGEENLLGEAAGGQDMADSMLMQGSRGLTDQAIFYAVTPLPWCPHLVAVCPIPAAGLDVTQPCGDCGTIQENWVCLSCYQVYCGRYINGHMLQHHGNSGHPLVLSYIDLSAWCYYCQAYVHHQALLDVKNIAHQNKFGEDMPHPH
Method in brief: as §1

Row | Structure (SMILES) | IC50 [1] [nM] | IC50 [2] [nM]
1 | O=C(NO)c1ccc2c(c1)OC1(CC2)CCN(C(=O)C2CCCCC2)CC1 [II-5, 1′-(cyclohexanecarbonyl)-N-hydroxyspiro[chromane-2,4′-piperidine]-7-carboxamide] | 100 to 500 | ≤ 100
2 | COCCN1CC[C@]2(CCc3ccc(C(=O)NO)cc3C2)C1=O [Compound I-84, (R)—N-hydroxy-1′-(2-methoxyethyl)-2′-oxo-3,4-dihydro-1H-spiro[naphthalene-2,3′-pyrrolidine]-7-carboxamide] | > 500 | ≤ 100
3 | O=C(NO)c1ccc2c(c1)C[C@]1(CC2)CCN(CC2CCOCC2)C1=O [Compound I-85, (R)—N-hydroxy-2′-oxo-1′-((tetrahydro-2H-pyran-4-yl)methyl)-3,4-dihydro-1H-spiro[naphthalene-2,3′-pyrrolidine]-7-carboxamide] | > 500 | ≤ 100
4 | CN(C)CCc1ccc(N2CC[C@@]3(CCc4ccc(C(=O)NO)cc4C3)C2=O)cc1 [Compound I-119, (S)-1′-(4-(2-(dimethylamino)ethyl)phenyl)-N-hydroxy-2′-oxo-3,4-dihydro-1H-spiro[naphthalene-2,3′-pyrrolidine]-7-carboxamide] | > 500 | ≤ 100
5 | COc1cccc(CN2CC[C@]3(CCc4ccc(C(=O)NO)cc4C3)C2=O)c1 [Compound I-96, (R)—N-hydroxy-1′-(3-methoxybenzyl)-2′-oxo-3,4-dihydro-1H-spiro[naphthalene-2,3′-pyrrolidine]-7-carboxamide] | 100 to 500 | ≤ 100
6 | O=C(NO)c1ccc2c(c1)C[C@@]1(CC2)CCN(Cc2c(Cl)cccc2Cl)C1=O [Compound I-68, (S)-1′-(2,6-dichlorobenzyl)-N-hydroxy-2′-oxo-3,4-dihydro-1H-spiro[naphthalene-2,3′-pyrrolidine]-7-carboxamide] | > 500 | ≤ 100

The remaining lines, values ahead:

Row | IC50 [1] [nM] | IC50 [2] [nM] | Structure (SMILES)
7 | > 500 | ≤ 100 | COCCn1c(N2CC[C@@]3(CCc4ccc(C(=O)NO)cc4C3)C2=O)nc2ccccc21 [Compound I-33, (S)—N-hydroxy-1′-(1-(2-methoxyethyl)-1H-benzo[d]imidazol-2-yl)-2′-oxo-3,4-dihydro-1H-spiro[naphthalene-2,3′-pyrrolidine]-7-carboxamide]
8 | > 500 | ≤ 100 | CC(C)CCN1CC[C@@]2(CCc3ccc(C(=O)NO)cc3C2)C1=O [Compound I-54, (S)—N-hydroxy-1′-isopentyl-2′-oxo-3,4-dihydro-1H-spiro[naphthalene-2,3′-pyrrolidine]-7-carboxamide]
9 | > 500 | > 500 | COc1ccc(CN2CCC3(CCc4ccc(C(=O)NO)cc4O3)CC2)cc1 [II-7, N-hydroxy-1′-(4-methoxybenzyl)spiro[chromane-2,4′-piperidine]-7-carboxamide]
10 | > 500 | ≤ 100 | O=C(NO)c1ccc2c(c1)C[C@@]1(CC2)CCN(Cc2cccc(Cl)c2)C1=O [Compound I-74, (S)-1′-(3-chlorobenzyl)-N-hydroxy-2′-oxo-3,4-dihydro-1H-spiro[naphthalene-2,3′-pyrrolidine]-7-carboxamide]
11 | > 500 | ≤ 100 | O=C(NO)c1ccc2c(c1)CC1(CC2)CCN(C(=O)C2CCCCC2)C1 (centres unmarked) [Compound I-4, 1′-(cyclohexanecarbonyl)-N-hydroxy-3,4-dihydro-1H-spiro[naphthalene-2,3′-pyrrolidine]-7-carboxamide]
12 | > 500 | ≤ 100 | O=C(NO)c1ccc2c(c1)C[C@]1(CC2)CCN(c2ccccn2)C1=O [Compound I-43, (R)—N-hydroxy-2′-oxo-1′-(pyridin-2-yl)-3,4-dihydro-1H-spiro[naphthalene-2,3′-pyrrolidine]-7-carboxamide]
13 | > 500 | ≤ 100 | O=C(NO)c1ccc2c(c1)C[C@@]1(CC2)CCN(c2ccccc2)C1 [Compound I-16, (S)—N-hydroxy-1′-phenyl-3,4-dihydro-1H-spiro[naphthalene-2,3′-pyrrolidine]-7-carboxamide]
